Experiments:
[1] = test system: 4175-LuT exosome uptake in the lung; assay: Peptide blocking of 4175-LuT exosome uptake in the lung; format: in vivo, mice; conditions: 0.06 μM peptide, 30 minutes at 37° C. prior to exosome injection
Method: FIGS. 6A-D show exosomal ITGβ4 expression functionally contributes to 4175-LuT exosome localization and mediates lung metastasis. FIG. 6A, left upper panels, show NIR whole lung imaging of 4175-LuT, 4175β4KD or 4175-LuT-derived exosomes pre-incubated with RGD or HYD-1 peptides. Scale bar, 5 mm. […] (n=4, except 4175 for which n=6). Error bars, ± s.e.m. *P<0.05; **P<0.01 by one-way ANOVA. The left lower panels show fluorescence microscopy. Arrows indicate exosome foci. Scale bar, 50 μm. […] Error bars, ±s.e.m. ***P<0.001 by one-way ANOVA. FIG. 6B, left panel, show NIR whole lung imaging of 1833-BoT (n=5) or 1833-BoT overexpressing (OE) ITGβ4 (n=4) exosomes. Scale bar, 5 mm. […] Bioluminescence imaging of lung metastasis and quantification of luciferase activity (n=6, data representative of 2 independent experiments) is shown. […]
To assess lung, liver and bone exosome distribution, exosomes were injected via the retro-orbital venous sinus, the tail vein or intracardially. […] An average of five random fields was counted per sample at 20× magnification and representative pictures were taken at 40× magnification. […] To measure exosome uptake by specific cell types, labelled exosomes were injected 24 hours prior to tissue collection and tissues were analysed for exosome-positive cells by immunofluorescence. […] Whole lung images were analysed by image J software, by red fluorescence area in arbitrary unit (a.u.).

[2] = test system: WI-38 lung fibroblasts; assay: In vitro uptake of 4175-LuT exosomes by WI-38 lung fibroblasts; format: cell-based, human; conditions: 10 μg/ml exosomes pre-incubated with peptide 30 minutes at 37° C., one hour with cells
Method: FIGS. 5A-M show ITGs functionally regulate organotropic exosome uptake and exosome-mediated metastasis. […] For western blot source data, see FIG. 9L. […] The WI-38 cell membrane was labelled with PKH67 dye and 4175-LuT exosomes were labelled with PKH26 dye. 10 μg/ml of exosomes were first incubated with PBS or HYD-1 peptide for 30 minutes at 37° C., followed by one hour incubation with WI-38 cells at 37° C. Excess exosomes were washed and cells were imaged (n=4 for two independent experiments); scale bar, 10 μm. […] For western blot source data, see FIG. 9M. […] Arrows indicate lung metastasis. Scale bar, 500 μm. […] For western blot source data, see FIG. 9N. […] An average of five random fields were counted at 20× magnification (data representative of 2 independent experiment n=3). […] Livers were harvested and analyzed for exosome positive cells by flow cytometry 24 hours post injection (n=4, except for the ITGαvβ5 antibody group, which n=5). […] Livers were digested and exosome-positive cells were quantified by flow cytometry (n=3). […] The lower panels show liver weight quantification (n=4 except for the control and peptide group for which n=3 of one experiment). […] Three days after cells were plated at equal density, cell numbers were counted using a hemocytometer (n=3 in 3 independent experiments). […]

KIKMVISWKG (Artificial Amino acid HYD-1 peptide)
4175-LuT exosome uptake in the lung after pre-incubation with peptide [1]: dramatically reduced
uptake of 4175-LuT exosomes by WI-38 lung fibroblasts in vitro [2]: prevented
